The values below come from patent US9809598B2 (Merck Patent GmbH, priority 2014, dated 2017).

Molecules are shown by their SMILES. Structures can show the parent of a compound that is named as a salt.

The target of one experiment is T1, PARP-1 (Homo sapiens, UniProt P09874).
T1 construct: purchased Enzo Life Sciences GmbH, Lörrach, Germany
In words: PARP-1 autoparsylation assay (HTRF). Format: biochemical. The following applies: His-tagged Parp-1, autoparsylation HTRF. From the text: Description of the PARP1 Assay
Biochemical Activity Testing of PARP-1: Autoparsylation Assay
The autoparsylation assay is run in two steps: the enzymatic reaction in which His-tagged Parp-1 transfers biotinylated ADP-ribose/ADP-ribose to itself from biotinylated NAD/NAD as co-substrate and the detection reaction where a time resolved FRET between cryptate labelled anti-His antibody bound to the His tag of the enzyme and Xlent® labelled-streptavidin bound the biotin-parsylation residue is analysed. The autoparsylation activity is detectable directly via the increase in HTRF signal.
The autoparsylation assay is performed as 384-well HTRF® (Cisbio, Codolet, France) assay format in Greiner low volume nb 384-well microtiter plates. […] The ratio of the emission signals is determined. The full value used is the inhibitor-free reaction. The pharmacological zero value used is Olaparib (LClabs, Woburn, US) in a final concentration of 1 μM. The inhibitory values (IC50) are determined using either the program Symyx Assay Explorer® or Condosseo® from GeneData.

Another experiment has as its target T2, TNKS1 (Homo sapiens, UniProt O95271).
T2 construct: GST-tagged Tnks-1 (1023-1327 aa, prepared in-house); made in house
Briefly: TNKS1 activity ELISA (autoparsylation assay). In kind it is biochemical. The following applies: GST-tagged Tnks-1 (1023-1327 aa). Put shortly: (§1)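 GST-tagged TNKS1 or TNKS2 captured on glutathione plates and allowed to auto-PARsylate with biotinylated NAD with or without compound. Biotin-ADP-ribosylated enzyme detected by streptavidin-HRP and luminescence; IC50 relative to inhibitor-free reaction.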

Another experiment has as its target T3, TNKS2 (Homo sapiens, UniProt Q9H2K2).
T3 construct: GST-tagged Tnks-2 (873-1166 aa, prepared in-house); made in house
Briefly: TNKS2 activity ELISA (autoparsylation assay). Format: biochemical. The conditions noted are these: GST-tagged Tnks-2 (873-1166 aa); read-out: IC50 [M] TNKS2 ELISA. In outline:
as §1

In a further experiment the test system is Tankyrases. The conditions noted are these: read-out: EC50 [M] TNKS cellular assay; DLD1 cells, 24 hours, Axin2 increase.

T3 sequence (Q9H2K2 873-1166): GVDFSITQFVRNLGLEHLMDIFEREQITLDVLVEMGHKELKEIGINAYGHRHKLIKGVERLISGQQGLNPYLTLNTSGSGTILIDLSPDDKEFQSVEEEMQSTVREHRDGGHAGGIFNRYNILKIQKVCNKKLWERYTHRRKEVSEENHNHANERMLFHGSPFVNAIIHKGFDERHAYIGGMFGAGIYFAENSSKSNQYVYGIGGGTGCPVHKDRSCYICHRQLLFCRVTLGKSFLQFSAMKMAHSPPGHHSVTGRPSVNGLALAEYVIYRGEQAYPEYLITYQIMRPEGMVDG
T2 sequence (O95271 1023-1327): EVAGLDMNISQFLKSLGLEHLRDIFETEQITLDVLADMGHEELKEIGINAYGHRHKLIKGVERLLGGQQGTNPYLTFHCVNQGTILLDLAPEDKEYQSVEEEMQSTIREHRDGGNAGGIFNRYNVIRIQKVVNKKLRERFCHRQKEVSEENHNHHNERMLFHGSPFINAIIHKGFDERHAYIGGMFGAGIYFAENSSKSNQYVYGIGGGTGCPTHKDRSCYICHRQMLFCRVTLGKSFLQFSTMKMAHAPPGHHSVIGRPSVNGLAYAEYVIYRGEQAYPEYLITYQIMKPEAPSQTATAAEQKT
T1 sequence (P09874 whole entry): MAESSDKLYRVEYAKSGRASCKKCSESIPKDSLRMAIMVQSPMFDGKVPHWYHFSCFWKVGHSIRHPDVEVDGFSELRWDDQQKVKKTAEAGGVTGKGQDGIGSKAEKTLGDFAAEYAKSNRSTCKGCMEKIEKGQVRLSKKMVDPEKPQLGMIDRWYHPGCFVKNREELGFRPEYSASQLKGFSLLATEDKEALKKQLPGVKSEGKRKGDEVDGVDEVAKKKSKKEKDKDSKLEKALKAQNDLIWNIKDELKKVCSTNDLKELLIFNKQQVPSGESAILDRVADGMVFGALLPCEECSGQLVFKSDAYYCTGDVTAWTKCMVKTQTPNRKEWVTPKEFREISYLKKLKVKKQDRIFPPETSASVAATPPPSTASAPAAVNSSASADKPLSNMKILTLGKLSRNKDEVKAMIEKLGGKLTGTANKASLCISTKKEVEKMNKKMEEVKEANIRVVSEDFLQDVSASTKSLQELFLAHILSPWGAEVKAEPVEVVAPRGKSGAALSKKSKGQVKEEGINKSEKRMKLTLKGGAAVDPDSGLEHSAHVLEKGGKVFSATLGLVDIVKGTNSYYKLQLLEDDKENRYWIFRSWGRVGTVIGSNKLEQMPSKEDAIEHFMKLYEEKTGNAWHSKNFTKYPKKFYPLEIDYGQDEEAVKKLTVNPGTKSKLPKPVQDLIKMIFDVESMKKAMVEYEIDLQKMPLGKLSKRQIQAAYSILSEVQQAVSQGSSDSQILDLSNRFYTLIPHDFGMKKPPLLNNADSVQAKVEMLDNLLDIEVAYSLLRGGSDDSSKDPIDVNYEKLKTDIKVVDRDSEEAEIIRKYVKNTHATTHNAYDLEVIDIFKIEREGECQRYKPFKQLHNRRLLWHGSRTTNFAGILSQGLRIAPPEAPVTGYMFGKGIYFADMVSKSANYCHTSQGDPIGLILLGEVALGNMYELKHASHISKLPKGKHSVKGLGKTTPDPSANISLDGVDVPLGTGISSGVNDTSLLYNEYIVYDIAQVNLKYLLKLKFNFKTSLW

In general, IC50 refers to the midpoint of a concentration-inhibition curve. For orientation: EC50 means the concentration needed to bring the measured effect to its halfway point. As for `COc1ccc(C(=O)C2CCN(C(=O)CCCc3cn4cc(C)cc4c(=O)[nH]3)CC2)cc1` [Compound C8, 3-{4-[4-(4-Methoxy-benzoyl)-piperidin-1-yl]-4-oxo-butyl}-7-methyl-2H-pyrrolo[1,2-a]pyrazin-1-one], the values for the 50% inhibitory concentration (IC50) at PARP-1, against TNKS1 and on TNKS2 were 2900 nM, below 0.1 nM and 1.6e-10 M, respectively. In addition, the half-maximal effective concentration (EC50) in the experiment with Tankyrases worked out at 2.8e-09 M.
The corresponding values for `Nc1ncc(C2CCN(C(=O)CCCc3nn4cc(F)cc4c(=O)[nH]3)CC2)cc1-c1ncccn1` [Compound C172, 2-[4-(6-Amino-5-pyrimidin-2-yl-3′,4′,5′,6′-tetrahydro-2′H-[3,4′]bipyridinyl-1′-yl)-4-oxo-butyl]-6-fluoro-3H-pyrrolo[2,1-f][1,2,4]triazin-4-one] are 2500 nM, 0.61 nM, 5.3e-10 M and 6.8e-09 M.
The corresponding values for `COc1ccc(C(=O)C2CCN(C(=O)CCCc3cn4nc(C)cc4c(=O)[nH]3)CC2)cn1` [Compound C231, 6-{4-[4-(6-Methoxy-pyridine-3-carbonyl)-piperidin-1-yl]-4-oxo-butyl}-2-methyl-5H-pyrazolo[1,5-a]pyrazin-4-one] are 4500 nM, 0.36 nM, 5.4e-10 M and 5.4e-09 M.
Regarding `Cc1cc2c(=O)[nH]c(CCCC(=O)N3CCC(C(=O)c4cnn(C)c4)CC3)cn2n1` [Compound C209, 2-Methyl-6-{4-[4-(1-methyl-1H-pyrazole-4-carbonyl)-piperidin-1-yl]-4-oxo-butyl}-5H-pyrazolo[1,5-a]pyrazin-4-one], the values for the IC50 against PARP-1, on TNKS1 and on TNKS2 were 8500 nM, 0.76 nM and 7.9e-10 M, respectively. Moreover, the concentration giving a half-maximal response (EC50) with Tankyrases is 1e-08 M.
For `COc1ccc(C(=O)C2CCN(C(=O)CCCc3cn4c(Cl)ccc4c(=O)[nH]3)CC2)cc1` [Compound C11, 6-Chloro-3-{4-[4-(4-methoxy-benzoyl)-piperidin-1-yl]-4-oxo-butyl}-2H-pyrrolo[1,2-a]pyrazin-1-one], the concentration for half-maximal inhibition (IC50) was 2700 nM at PARP-1, 0.14 nM against TNKS1 and 1.6e-10 M at TNKS2. Also, the EC50 in the experiment on Tankyrases was 9e-10 M.
`CCn1cc(C(=O)C2CCN(C(=O)CCCc3nn4cc(C)cc4c(=O)[nH]3)CC2)cn1` [Compound C233, 2-{4-[4-(1-Ethyl-1H-pyrazole-4-carbonyl)-piperidin-1-yl]-4-oxo-butyl}-6-methyl-3H-pyrrolo[2,1-f][1,2,4]triazin-4-one]: the IC50 came out at 5300 nM against PARP-1, 1.2 nM at TNKS1 and 2.3e-09 M on TNKS2. Besides, the EC50 in the experiment on Tankyrases is 5.4e-08 M.
In the same order, the values of `COc1ccc(C(=O)C2CCN(C(=O)CCCc3nn4cc(C)cc4c(=O)[nH]3)CC2)cc1F` [Compound C158, 2-{4-[4-(3-Fluoro-4-methoxy-benzoyl)-piperidin-1-yl]-4-oxo-butyl}-6-methyl-3H-pyrrolo[2,1-f][1,2,4]triazin-4-one] are 2100 nM, 0.44 nM, 9.2e-10 M and 4.4e-09 M.
In the same order, the values of `Cc1ncc2c(=O)[nH]c(CCCC(=O)N3CCC(C(=O)c4cnn(C)c4)CC3)cn12` [Compound C105, 3-Methyl-6-{4-[4-(1-methyl-1H-pyrazole-4-carbonyl)-piperidin-1-yl]-4-oxo-butyl}-7H-imidazo[1,5-a]pyrazin-8-one] are 29000 nM, 0.43 nM, 5.7e-10 M and 3.9e-07 M.
In the same order, the values of `Cc1ccc2c(=O)[nH]c(CCCC(=O)N3CCC(Oc4ccc(C#N)cc4)CC3)cn12` [Compound C7, 4-{1-[4-(6-Methyl-1-oxo-1,2-dihydro-pyrrolo[1,2-a]pyrazin-3-yl)-butyryl]-piperidin-4-yloxy}-benzonitrile] are 1800 nM, 2.6 nM, 2e-09 M and 4.7e-08 M.
As to `Cc1ccc2c(=O)[nH]c(CCCC(=O)N3CCC(c4nnc(-c5ccccc5)o4)CC3)nn12` [Compound C151, 7-Methyl-2-{4-oxo-4-[4-(5-phenyl-[1,3,4]oxadiazol-2-yl)-piperidin-1-yl]-butyl}-3H-pyrrolo[2,1-f][1,2,4]triazin-4-one], the half-maximal inhibitory concentration (IC50) at PARP-1 turned out to be 210 nM; against TNKS1, 1.4 nM; at TNKS2 it was 9.3e-10 M. For the same compound, the EC50 in the experiment with Tankyrases amounted to 1.9e-08 M.
The corresponding values for `Cc1ccc2c(=O)[nH]c(CCCC(=O)N3CCC(C(=O)c4cnn(C)c4)CC3)cn12` [Compound C62, 6-Methyl-3-{4-[4-(1-methyl-1H-pyrazole-4-carbonyl)-piperidin-1-yl]-4-oxo-butyl}-2H-pyrrolo[1,2-a]pyrazin-1-one] are 800 nM, 0.16 nM, 1.2e-10 M and 3.5e-09 M.
In the same order, the values of `Cc1csc2c(=O)[nH]c(CCCC(=O)N3CCC(c4cnc(N)c(C#N)c4)CC3)nc12` [Compound C56, 6-Amino-1′-[4-(7-methyl-4-oxo-3,4-dihydro-thieno[3,2-d]pyrimidin-2-yl)-butyryl]-1′,2′,3′,4′,5′,6′-hexahydro-[3,4′]bipyridinyl-5-carbonitrile] are 360 nM, 0.95 nM, 5.3e-10 M and 3.6e-08 M.
Turning to `COc1ccc(C(=O)C2CCN(C(=O)CCCc3nn4c(C)ccc4c(=O)[nH]3)CC2)cn1` [Compound C148, 2-{4-[4-(6-Methoxy-pyridine-3-carbonyl)-piperidin-1-yl]-4-oxo-butyl}-7-methyl-3H-pyrrolo[2,1-f][1,2,4]triazin-4-one], the IC50 is 770 nM at PARP-1, 0.28 nM on TNKS1 and 1.9e-10 M at TNKS2. Besides, the 50% effective concentration (EC50) in the experiment on Tankyrases is 1.4e-09 M.
Regarding `Cn1ncc2c(=O)[nH]c(CCCC(=O)N3CCC(C(=O)c4ccc(C(C)(C)O)cc4)CC3)nc21` [Compound C50, 6-{4-{4-[4-(1-Hydroxy-1-methyl-ethyl)benzoyl]-1-piperidyl}-4-oxo-butyl}-1-methyl-5H-pyrazolo[3,4-d]pyrimidin-4-one], the values for the IC50 at PARP-1, on TNKS1 and on TNKS2 were 23000 nM, 11 nM and 4e-09 M, respectively. The EC50 with Tankyrases turned out to be 3.8e-07 M.
In the same order, the values of `N#Cc1cc(C2CCN(C(=O)CCCc3nc4c(c(=O)[nH]3)CCCC4)CC2)cnc1N` [Compound C232, 6-Amino-1′-[4-(4-oxo-3,4,5,6,7,8-hexahydro-quinazolin-2-yl)-butyryl]-1′,2′,3′,4′,5′,6′-hexahydro-[3,4′]bipyridinyl-5-carbonitrile] are 2700 nM, 20 nM, 5.7e-09 M and 5.6e-08 M.
The corresponding values for `Cc1scc2c(=O)[nH]c(CCCC(=O)N3CCC(c4cnc(N)c(C#N)c4)CC3)nc12` [Compound C115, 6-Amino-1′-[4-(7-methyl-4-oxo-3,4-dihydro-thieno[3,4-d]pyrimidin-2-yl)-butyryl]-1′,2′,3′,4′,5′,6′-hexahydro-[3,4′]bipyridinyl-5-carbonitrile trifluoroacetate] are 570 nM, 0.98 nM, 1.3e-09 M and 4.9e-08 M.
